Results reported in patent publication US9346761B2, “Arginine methyltransferase inhibitors and uses thereof” (Epizyme, Inc., priority 2013, dated 2016).

Target: T1, Full-length human PRMT1 isoform 1 (Homo sapiens, UniProt Q99873)
T1 construct: GST-tagged PRMT1; made in house; host or cells: High Five insect cells (baculovirus, pFastBacI)
Assay: PRMT1 biochemical assay (3H-SAM Flashplate, peptide substrate)
Procedure, shortened: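 GST-tagged full-length PRMT1 from baculovirus-infected cells, preincubated 30 min at room temperature with compound in 20 mM Bicine pH 7.6, TCEP, BSG, Tween 20. Reaction started with 3H-SAM plus biotinylated peptide, stopped with 300 uM unlabelled SAM. Streptavidin Flashplate capture and scintillation counting; % inhibition curve-fitted for IC50.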

T1 sequence (Q99873 with tags, fused parts or gaps): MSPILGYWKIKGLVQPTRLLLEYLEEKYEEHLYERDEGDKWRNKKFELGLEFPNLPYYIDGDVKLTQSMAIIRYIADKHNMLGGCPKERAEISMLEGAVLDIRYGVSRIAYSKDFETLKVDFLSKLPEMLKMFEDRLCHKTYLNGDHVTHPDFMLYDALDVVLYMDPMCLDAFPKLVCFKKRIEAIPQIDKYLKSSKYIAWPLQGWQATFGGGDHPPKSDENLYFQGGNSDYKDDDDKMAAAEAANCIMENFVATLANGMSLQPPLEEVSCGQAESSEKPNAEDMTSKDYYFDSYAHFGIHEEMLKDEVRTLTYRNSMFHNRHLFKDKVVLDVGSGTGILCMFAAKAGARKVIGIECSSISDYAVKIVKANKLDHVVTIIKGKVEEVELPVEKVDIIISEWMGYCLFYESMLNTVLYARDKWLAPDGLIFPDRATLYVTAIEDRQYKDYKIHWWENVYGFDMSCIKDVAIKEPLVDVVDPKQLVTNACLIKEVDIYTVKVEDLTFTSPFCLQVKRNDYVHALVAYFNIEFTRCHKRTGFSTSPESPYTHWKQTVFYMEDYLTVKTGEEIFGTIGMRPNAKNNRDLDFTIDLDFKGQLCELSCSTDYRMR

CNCCN(C)Cc1c[nH]nc1-c1ccc(F)cc1 [Compound 2, N^1-((3-(4-fluorophenyl)-1H-pyrazol-4-yl)methyl)-N^1,N^2-dimethylethane-1,2-diamine]
IC50: < 0.1 µM

CN(CCN)Cc1cn(C)nc1-c1ccc(F)cc1 [Compound 3]
IC50: < 0.1 µM

CN(CCN)Cc1cnn(C)c1-c1ccc(F)cc1 [Compound 4]
IC50: 0.101 to 1 µM

CNCCN(C)Cc1c[nH]nc1-c1ccc(C(=O)c2ccccc2)cc1 [Compound 45]
IC50: < 0.1 µM

CNCCN(C)Cc1c[nH]nc1-c1ccccc1-c1ccccc1 [Compound 46]
IC50: 1.01 to 3 µM

CNCCN(C)Cc1c[nH]nc1-c1ccc(F)cc1F [Compound 49]
IC50: 0.101 to 1 µM

CNCCN(C)Cc1c[nH]nc1-c1cc(F)ccc1F [Compound 50]
IC50: 0.101 to 1 µM

CNCCN(C)Cc1c[nH]nc1-c1ccc(F)c(F)c1 [Compound 51]
IC50: < 0.1 µM

CNCCN(C)Cc1c[nH]nc1-c1ccc(OC)c(F)c1 [Compound 52]
IC50: < 0.1 µM

CNCCN(C)Cc1c[nH]nc1-c1cc(Cl)ccc1OC [Compound 53]
IC50: 3.01 to 10 µM

CNCCN(C)Cc1c[nH]nc1-c1cccc(OC)c1OC [Compound 54]
IC50: 0.101 to 1 µM

CNCCN(C)Cc1c[nH]nc1-c1ccc(OC)cc1OC [Compound 55]
IC50: 0.101 to 1 µM

CNCCN(C)Cc1c[nH]nc1-c1c(OC)cccc1OC [Compound 56]
IC50: 3.01 to 10 µM

CNCCN(C)Cc1c[nH]nc1-c1cccc2ccccc12 [Compound 57]
IC50: < 0.1 µM

CNCCN(C)Cc1c[nH]nc1-c1ccc2ccccc2c1 [Compound 58]
IC50: < 0.1 µM

CNCCN(C)Cc1cn(CCC(O)CO)nc1-c1ccc(F)cc1 (centres unmarked) [Compound 59]
IC50: 3.01 to 10 µM

CCNCCN(C)Cc1c[nH]nc1-c1ccc(F)cc1 [Compound 60]
IC50: 0.101 to 1 µM

COCCn1cc(CN(C)CCN(C)C)c(-c2ccc(F)cc2)n1 [Compound 61]
IC50: > 10 µM

CCN(CCN)Cc1c[nH]nc1-c1ccc(F)cc1 [Compound 62]
IC50: < 0.1 µM

CCCN(CCN)Cc1c[nH]nc1-c1ccc(F)cc1 [Compound 63]
IC50: 1.01 to 3 µM

COCCn1ncc(CN(C)CCN(C)C)c1-c1ccc(F)cc1 [Compound 64]
IC50: > 10 µM

CN(CCN)Cc1cnn(CCO)c1-c1ccc(F)cc1 [Compound 65]
IC50: 1.01 to 3 µM

CN(CCN)Cc1cn(CCO)nc1-c1ccc(F)cc1 [Compound 66]
IC50: 1.01 to 3 µM

CN(CCN)Cc1c[nH]nc1-c1ccc(C#N)cc1 [Compound 68]
IC50: < 0.1 µM

CN(CCN)Cc1n[nH]cc1-c1ccc(F)cc1 [Compound 69]
IC50: < 0.1 µM

CN(CCN)Cc1c[nH]nc1-c1cccc(C#N)c1 [Compound 70]
IC50: 0.101 to 1 µM

CN(CCN)Cc1c[nH]nc1-c1cccc(F)c1 [Compound 71]
IC50: < 0.1 µM

CN(CCN)Cc1c[nH]nc1-c1ccccc1F [Compound 72]
IC50: 0.101 to 1 µM

CN(CCN)Cc1c[nH]nc1-c1ccccc1 [Compound 73]
IC50: 0.101 to 1 µM

CN(CCN)Cc1c[nH]nc1-c1ccc(C(C)(C)C)cc1 [Compound 74]
IC50: < 0.1 µM

CC(C)N(CCN)Cc1c[nH]nc1-c1ccc(F)cc1 [Compound 75]
IC50: 0.101 to 1 µM

CN(CCN)Cc1cn(CC(O)CO)nc1-c1ccc(F)cc1 (centres unmarked) [Compound 76]
IC50: 3.01 to 10 µM

CN(CCN)Cc1cn(C2COC2)nc1-c1ccc(F)cc1 [Compound 77]
IC50: 0.101 to 1 µM

NCCN(Cc1c[nH]nc1-c1ccc(F)cc1)C1CC1 [Compound 78]
IC50: 0.101 to 1 µM

CN(CCN)Cc1cn(CC2COC2)nc1-c1ccc(F)cc1 [Compound 79]
IC50: > 10 µM

CN(CCN)Cc1cnn(CC2COC2)c1-c1ccc(F)cc1 [Compound 80]
IC50: > 10 µM

CN(CCN)Cc1cnn(C2COC2)c1-c1ccc(F)cc1 [Compound 81]
IC50: 0.101 to 1 µM

CN(CCN)Cc1c[nH]nc1-c1ccc(N2CCNCC2)cc1 [Compound 82]
IC50: < 0.1 µM

CN(CCN)Cc1nn(C)cc1-c1ccc(C#N)cc1 [Compound 83]
IC50: < 0.1 µM

CN(CCN)Cc1c(-c2ccc(C#N)cc2)cnn1C [Compound 84]
IC50: > 10 µM

CN(CCN)Cc1c[nH]nc1-c1ccc(C(F)(F)F)cc1C(F)(F)F [Compound 85]
IC50: 0.101 to 1 µM

CN(CCN)Cc1c[nH]nc1-c1ccc(Cl)cc1Cl [Compound 86]
IC50: < 0.1 µM

COc1ccc(-c2n[nH]cc2CN(C)CCN)c(OC)c1 [Compound 87]
IC50: 0.101 to 1 µM

Cc1ccc(-c2n[nH]cc2CN(C)CCN)c(C)c1 [Compound 88]
IC50: 0.101 to 1 µM

CN(CCN)Cc1c[nH]nc1-c1ccc(F)cc1Cl [Compound 89]
IC50: < 0.1 µM

Cc1ccc(-c2n[nH]cc2CN(C)CCN)c(Cl)c1 [Compound 90]
IC50: < 0.1 µM

Cc1ccc(Cl)c(-c2n[nH]cc2CN(C)CCN)c1 [Compound 91]
IC50: 0.101 to 1 µM

CN(CCN)Cc1c[nH]nc1-c1ccc(C(F)(F)F)cc1 [Compound 92]
IC50: < 0.1 µM

CN(CCN)Cc1c[nH]nc1-c1ccc(OC(F)(F)F)cc1 [Compound 93]
IC50: < 0.1 µM

CN(CCN)Cc1c[nH]nc1-c1ccc(OC(F)F)cc1 [Compound 94]
IC50: < 0.1 µM
